Experimental data: PMC12264554, “Application of preclinical absorption, distribution, metabolism, elimination in vitro techniques for the characterization and compound library optimization of novel antibiotic gallium salophen” (Drug Metabolism and Disposition, 2025)
Read-outs that look alike come from different tables or passages of the source.

Key:
[1] = Caco-2 permeability screening; assay type: in vitro ADME; conditions: for Papp: Caco-2, ranked by Papp against control drugs, read-out: Permeability ranking; for efflux ratio at 20 µM: human
Experimental: Caco-2 cells were received from American Type Culture Collection and certified mycoplasma free. Cells were seeded on transwell plates (CoStar, growth area 0.33 cm^2/well, polycarbonate membrane, 0.33 μm pore size) between passage 20 and 27 and then analyzed between 21 and 25 days after wells were seeded to ensure enterocyte-like differentiation. Before assessing permeability, cells were washed once with Hank’s Balanced Salt Solution buffer, pH 7.4, and then incubated at 37 °C for 30 minutes. Transepithelial electrical resistance (TEER) was measured after equilibration before the experiment using an epithelial volt-ohmmeter (EVOM, World Precision Instruments), and cells were used if TEER > 250 Ω × cm^2. Cells were dosed to measure permeability from basolateral and apical sides at a concentration of 20 μM of test compound and 50 μM of Lucifer yellow. Lucifer yellow was used as a “zero permeability” marker to monitor the integrity of cell barrier. Samples were taken at 0 and 60 minutes from the donor side, and samples were taken at 30 and 60 minutes from the receiver side; media was replenished after the 30-minute sample was taken from both chambers. A calibration curve was prepared by serial dilution using the dosing solution in a 1:5 dilution. […] Samples were prepared for LC-MS/MS analysis by taking 100 μL of sample, adding 1 μM internal standard (GaSal-4 or GaSal-5), and crashing with 400 μL of methanol. Samples were centrifuged at 3000 rpm at 4 °C for 30 minutes, 200 μL of supernatant was transferred to a new plate, and 100 μL of water was added to each sample. Samples were vortexed and analyzed by LC-MS/MS as described earlier. […] To preliminarily evaluate organic cation transporter 1 (OCT1) or P-glycoprotein (P-gp)-dependent transport, transport studies were conducted with and without a 1 μM “inhibitor cocktail” alongside GaSal. […] The Papp for basolateral to apical, Papp apical to basolateral, and efflux ratio were reported for each compound. In order to calculate Papp, the concentration in the sampled time point was determined from the calibration curve and then converted to μg based on the volume of the chamber (0.2 mL for apical, 1.0 mL for basolateral). […] The calculation of Papp was determined using eq. […] Data are presented as the average ± SEM for each compound analyzed as n = 3 on 2 different days with 2 different cell line passages, for n = 6 total. GaSal is n = 3 on 3 different cell line passages since this was used as a test compound for the inhibition cocktail experiments.

[2] = Experimental LogP by reverse-phase HPLC method; assay type: physicochemical; conditions: extrapolated log kw
Text: LogP was experimentally determined using previously published reverse-phase high-performance liquid chromatography method, and this workflow was adapted using instrumentation described in the previous LC-MS/MS analysis section ([Coutinho et al, 2023]). Briefly, analogs were eluted using isocratic flow with an increasing percentage of organic solvent from 55% to 90% in increments of 5%. The change in the log of the retention factor, log k, was plotted against the fraction of organic solvent. This allowed for extrapolation to the y-intercept, which is when the fraction of organic in the system is zero, or log kw. The same workflow was applied to known compounds with a published logP value to establish a relationship between logP and log kw. This ratio was used to calculate the experimental logP from the log kw of the test compounds. The in silico prediction of logP values was obtained using an online calculator by Molinspiration Cheminformatics (molinspiration.com).

[3] = Microsomal clearance assay; assay type: in vitro ADME, rat
Experimental: Library compounds were tested in triplicate at a concentration of 2 μM and incubated in 0.1 M potassium phosphate buffer containing 12 mM MgCl2 and 8 mM NADPH at pH 7.4 with either 0.5 mg/mL of Sprague–Dawley liver microsomes (Invitrogen). Samples were incubated for 0, 3, 7, 12, 20, and 30 minutes. At the designated time point, the incubation reaction was stopped by adding 100 μL of ACN containing 1 μM of either GaSal-4 or GaSal-5 as the internal standards. […] 7-Ethoxycoumarin (Sigma) was used as a positive control in this experiment. Intrinsic clearance (CLint) was calculated using eq. 2:(2) CLint=0.693/InVitroT1/2∗IncubationVolume/mgofmicrosomes∗45mgmicrosomes/gramofliver∗45gramsliver/kgofbodyweight
The average CLint ± SEM was determined for each compound for 2 replicates per time point.

[4] = S9 clearance assay; assay type: in vitro ADME; conditions: average ± SEM n = 3; for CLint scaled: S9 rat liver fraction, 2 μM, read-out: Predicted CLint (converted); for half-life at 2 µM: pH 7.4, S9 rat liver fraction
Experimental: Select library compounds were tested in triplicate at a concentration of 2 μM and incubated in 0.1 M potassium phosphate buffer containing 12 mM MgCl2 and 8 mM NADPH at pH 7.4 with 2.5 mg/mL of Sprague–Dawley S9 (Invitrogen). Incubations contained a final concentration of 2.5 mM UDP glucuronic acid, 0.10 mM adenosine 3’-phosphate 5’-phosphosulfate, 0.5 mM acetyl CoA, and 50 μg/mg protein alamethicin. All co-factors were from Sigma. Samples were incubated for 0, 3, 7, 12, 20, and 30 minutes. At the designated time point, the incubation reaction was stopped by adding 100 μL of ACN containing 1 μM of either GaSal-4 or GaSal-5 as the internal standard. […] A hundred microliter of supernatant was taken for LC-MS/MS analysis. 7-Ethoxycoumarin (Sigma) was used as a positive control in this experiment. Clearance was calculated according to eq. 3:(3) CLint=0.693/InVitroT1/2∗IncubationVolume/mgofS9∗165mgS9/gramofliver∗45gramsliver/kgofbodyweight
The average CLint ± SEM was determined for each compound for 3 replicates per time point.

[5] = system: CYP; assay: 7-Ethoxycoumarin metabolism in microsomes in the presence of GaSal analogs (possible CYP inhibition); assay type: in vitro ADME, rat; conditions: co-incubation with 7-ethoxycoumarin
[6] = Caco-2, 20 μM, 30 and 60 min, average ± SEM, read-out: Papp apical to basolateral
[7] = Caco-2, 20 μM, 30 and 60 min, average ± SEM, read-out: Papp basolateral to apical
[8] = Caco-2, 20 μM, read-out: Efflux ratio B to A/A to B

| Compound | Papp A→B [1, 6] [nm/s] | Papp B→A [1, 7] [nm/s] | Papp [1] [nm/s] | efflux ratio at 20 µM [1, 8] | logP [2] | decrease in peak area over time ([3]; rat liver microsomes, 30-minute period) [%] | CLint scaled [4] [L/h/kg] | half-life at 2 µM [4] [h] | Papp A→B ([1]; Caco-2, with OCT1 inhibitor cocktail (1 μM verapamil and cisplatin), read-out: Papp Apical to Basolateral) [nm/s] | Papp B→A ([1]; Caco-2, with OCT1 inhibitor cocktail (1 μM verapamil and cisplatin), read-out: Papp Basolateral to Apical) [nm/s] | Papp A→B ([1]; Caco-2, with PGP inhibitor cocktail (1 μM cannabidiol and itraconazole), read-out: Papp Apical to Basolateral) [nm/s] | Papp B→A ([1]; Caco-2, with PGP inhibitor cocktail (1 μM cannabidiol and itraconazole), read-out: Papp Basolateral to Apical) [nm/s] | efflux ratio at 20 µM ([1]; Caco-2, with OCT1 inhibitor cocktail, read-out: Efflux Ratio B to A/ A to B) | efflux ratio at 20 µM ([1]; Caco-2, with PGP inhibitor cocktail, read-out: Efflux Ratio B to A/ A to B) | CLint scaled ([3]; 2 μM, 0.5 mg/mL rat liver microsomes, NADPH, 30 min, read-out: experimental CLint (microsomes)) [L/h/kg] | 7-ethoxycoumarin metabolism when co-incubated (possible CYP inhibition) [5] |
| --- | --- | --- | --- | --- | --- | --- | --- | --- | --- | --- | --- | --- | --- | --- | --- | --- |
| Oc1cc(OCCN2CCOCC2)ccc1C=Nc1ccccc1N=Cc1ccc(OCCN2CCOCC2)cc1O.[Ga+3] [GaSal-3] | 0.4 ± 0.1 | 11.6 ± 0.9 | < 11.2 | 29 | 3.87 | < 10 | 1.81 | 2.67 ± 1.21 | – | – | – | – | – | – | – | – |
| COCCOc1ccc(/C=N/c2ccccc2N=C(C)c2ccccc2O)c(O)c1.[Ga+3] [GaSal-14] | < 0.1 | 11.9 ± 4 | < 11.2 | – | 3.31 | – | – | – | – | – | – | – | – | – | – | – |
| COCCOCCOc1ccc(C=Nc2ccccc2N=Cc2ccc(OCCOCCOC)cc2O)c(O)c1.[Ga+3] [GaSal-5] | 0.3 ± 0.1 | 32 ± 2 | < 11.2 | 107 | 3.95 | – | 1.67 | 2.88 ± 3.37 | – | – | – | – | – | – | – | – |
| COCCOc1ccc(/C=N/c2ccccc2/N=C/c2ccc(OCCOC)cc2O)c(O)c1.[Ga+3] [GaSal-13] | 6.1 ± 0.1 | 9.1 ± 1 | < 11.2 | 1.49 | 3.65 | – | – | – | – | – | – | – | – | – | – | – |
| O=C(O)CCOc1ccc(C=Nc2ccccc2N=Cc2ccc(OCCC(=O)O)cc2O)c(O)c1.[Ga+3] [GaSal-4] | < 0.1 | 14.4 ± 1.9 | < 11.2 | – | 3.33 | – | 23.9 | 0.2 ± 0.1 | – | – | – | – | – | – | – | – |
| Oc1ccccc1/C=N/c1ccccc1/N=C/c1ccccc1O.[Ga+3] [GaSal, gallium salophen] | 12 ± 0.1 | 136 ± 17.8 | 11.2 to 35.1 | 11.3 | 2.58 | – | 8.17 | 0.59 ± 0.15 | 18.1 ± 0.3 | 147 ± 32.6 | 13.3 ± 0.3 | 168 ± 38.6 | 8.1 | 12.6 | 1.28 to 3.78 | CYP inhibition |
